Source: the NIST ThermoML archive (doi:10.1021/acs.jced.8b01120)
Numbers after ± are expanded uncertainties.

Assay: xn = mol fraction of the nth substance listed
Conditions: 100 kPa, Liquid; for speed of sound: Single path-length method; for mass density: Vibrating tube method

CCCCN(CCCC)CCCC [tributylamine] + CCCOC(C)=O gave a speed of sound (293.15 K, x1 = 0.0509) of 1193.8 ± 4.4 m/s, a speed of sound (293.15 K, x1 = 0.1204) of 1198.3 ± 4.4 m/s and a speed of sound (293.15 K, x1 = 0.2066) of 1205.3 ± 4.3 m/s. The speed of sound (293.15 K, x1 = 0.306) was 1212 ± 4.3 m/s, the speed of sound (293.15 K, x1 = 0.4043) was 1219.3 ± 4.2 m/s and the speed of sound (293.15 K, x1 = 0.5015) was 1226.3 ± 4.2 m/s. The speed of sound (293.15 K, x1 = 0.6007) was 1233.2 ± 4.1 m/s, the speed of sound (293.15 K, x1 = 0.7102) was 1241.2 ± 4.1 m/s and the speed of sound (293.15 K, x1 = 0.8007) was 1248.5 ± 4.1 m/s. The speed of sound (293.15 K, x1 = 0.9008) was 1255.7 ± 4.1 m/s, the speed of sound (293.15 K, x1 = 1) was 1264.2 ± 4 m/s and the mass density (293.15 K, x1 = 0.0509) was 876.475 ± 2.1 kg/m3. It also gave a mass density (293.15 K, x1 = 0.1204) of 861.989 ± 2.1 kg/m3, a mass density (293.15 K, x1 = 0.2066) of 846.28 ± 2.1 kg/m3 and a mass density (293.15 K, x1 = 0.306) of 831.793 ± 2 kg/m3. It also gave a mass density (293.15 K, x1 = 0.4043) of 819.864 ± 2 kg/m3, a mass density (293.15 K, x1 = 0.5015) of 809.872 ± 2 kg/m3 and a mass density (293.15 K, x1 = 0.6007) of 801.215 ± 2 kg/m3. For the same compound, the mass density (293.15 K, x1 = 0.7102) was 793.047 ± 2 kg/m3, the mass density (293.15 K, x1 = 0.8007) was 787.307 ± 2 kg/m3 and the mass density (293.15 K, x1 = 0.9008) was 781.809 ± 2 kg/m3. It also gave a mass density (293.15 K, x1 = 1) of 777.006 ± 2 kg/m3, a speed of sound (298.15 K, x1 = 0.0509) of 1167.9 ± 4.4 m/s and a speed of sound (298.15 K, x1 = 0.1204) of 1173.2 ± 4.4 m/s. The speed of sound (298.15 K, x1 = 0.2066) was 1180.5 ± 4.3 m/s, the speed of sound (298.15 K, x1 = 0.306) was 1188.5 ± 4.3 m/s and the speed of sound (298.15 K, x1 = 0.4043) was 1196.3 ± 4.2 m/s. For the same compound, the speed of sound (298.15 K, x1 = 0.5015) was 1204.6 ± 4.2 m/s, the speed of sound (298.15 K, x1 = 0.6007) was 1212.4 ± 4.1 m/s and the speed of sound (298.15 K, x1 = 0.7102) was 1221.4 ± 4.1 m/s. It also gave a speed of sound (298.15 K, x1 = 0.8007) of 1228.5 ± 4.1 m/s, a speed of sound (298.15 K, x1 = 0.9008) of 1236.5 ± 4.1 m/s and a speed of sound (298.15 K, x1 = 1) of 1245.2 ± 4 m/s. The mass density (298.15 K, x1 = 0.0509) was 871.105 ± 2.1 kg/m3, the mass density (298.15 K, x1 = 0.1204) was 856.798 ± 2.1 kg/m3 and the mass density (298.15 K, x1 = 0.2066) was 841.395 ± 2.1 kg/m3. For the same compound, the mass density (298.15 K, x1 = 0.306) was 827.121 ± 2 kg/m3, the mass density (298.15 K, x1 = 0.4043) was 815.394 ± 2 kg/m3 and the mass density (298.15 K, x1 = 0.5015) was 805.603 ± 2 kg/m3. It also gave a mass density (298.15 K, x1 = 0.6007) of 797.082 ± 2 kg/m3, a mass density (298.15 K, x1 = 0.7102) of 789.025 ± 2 kg/m3 and a mass density (298.15 K, x1 = 0.8007) of 783.381 ± 2 kg/m3. It also gave a mass density (298.15 K, x1 = 0.9008) of 777.98 ± 2 kg/m3, a mass density (298.15 K, x1 = 1) of 773.283 ± 2 kg/m3 and a speed of sound (303.15 K, x1 = 0.0509) of 1148.6 ± 4.4 m/s. It also gave a speed of sound (303.15 K, x1 = 0.1204) of 1154.3 ± 4.4 m/s, a speed of sound (303.15 K, x1 = 0.2066) of 1161.6 ± 4.3 m/s and a speed of sound (303.15 K, x1 = 0.306) of 1169.1 ± 4.3 m/s. It also gave a speed of sound (303.15 K, x1 = 0.4043) of 1177 ± 4.2 m/s, a speed of sound (303.15 K, x1 = 0.5015) of 1185.2 ± 4.2 m/s and a speed of sound (303.15 K, x1 = 0.6007) of 1192.9 ± 4.1 m/s. The speed of sound (303.15 K, x1 = 0.7102) was 1201.8 ± 4.1 m/s, the speed of sound (303.15 K, x1 = 0.8007) was 1209.3 ± 4.1 m/s and the speed of sound (303.15 K, x1 = 0.9008) was 1217.8 ± 4.1 m/s. For the same compound, the speed of sound (303.15 K, x1 = 1) was 1226.2 ± 4 m/s.
